The values below come from ChEMBL document CHEMBL6109125, “A New Protractor Potentiates Glucagon-Like Peptide 1 with Slow-Release Depot and Long-Term Action” (J Med Chem, 2025).

The nature of series [1]: Apparent volume of distribution in Sprague-Dawley rat at 1 mg/kg, iv measured up to 48 hrs by LC-MS/MS analysis. The series is classed as ADME, organism-based. The conditions noted are these: in vivo, read-out: Vz.
In series [2] the test system is Mus musculus. Nature of the series: Anti-hyperglycemic activity in well-fed type-2 diabetes db/db mouse assessed as blood glucose level at 100 nmol/kg, sc administered on every 48 hrs. The class given is functional.
The test system of series [3] is Mus musculus. Briefly: Anti-hyperglycemic activity in type-2 diabetes db/db mouse assessed as regulation of blood glucose level at 3 to 600 nmol/kg, sc measured up to 96 hrs. The class given is functional, organism-based.
Series [4] concerns Mus musculus. Briefly: Anti-hyperglycemic activity in 16 hr-fasted type-2 diabetes db/db mouse assessed as homeostasis of blood glucose level at 100 nmol/kg, sc pretreated for 0.5 hrs followed by glucose administration measured for 2 hrs. The series is classed as functional, organism-based. The conditions noted are these: time 2.5 hrs.
In series [5] the test system is Mus musculus. Nature of the series: Anti-hyperglycemic activity in 16 hr-fasted type-2 diabetes db/db mouse at 100 nmol/kg, sc pretreated for 0.5 hrs followed by glucose administration measured for 2 hrs by OGTT method. The series is classed as functional, organism-based. The conditions noted are these: time 2.5 hrs.
Series [6] is described as follows: Apparent volume of distribution in BALB/c mouse at 0.5 mg/kg, iv measured up to 48 hrs by LC-MS/MS analysis. The class given is ADME, organism-based. The settings on record: in vivo, read-out: Vz.
The target in series [7] is T1, Dipeptidyl peptidase 4 (Rattus norvegicus, UniProt P14740). Briefly: Stability in Sprague-Dawley rat plasma assessed as DPP4-mediated drug degradation by measuring Lys(CBB)Gly metabolite formation measured after 96 hrs by mass spectrometry. The class given is ADME, cell-free.
T1 sequence (P14740 whole entry): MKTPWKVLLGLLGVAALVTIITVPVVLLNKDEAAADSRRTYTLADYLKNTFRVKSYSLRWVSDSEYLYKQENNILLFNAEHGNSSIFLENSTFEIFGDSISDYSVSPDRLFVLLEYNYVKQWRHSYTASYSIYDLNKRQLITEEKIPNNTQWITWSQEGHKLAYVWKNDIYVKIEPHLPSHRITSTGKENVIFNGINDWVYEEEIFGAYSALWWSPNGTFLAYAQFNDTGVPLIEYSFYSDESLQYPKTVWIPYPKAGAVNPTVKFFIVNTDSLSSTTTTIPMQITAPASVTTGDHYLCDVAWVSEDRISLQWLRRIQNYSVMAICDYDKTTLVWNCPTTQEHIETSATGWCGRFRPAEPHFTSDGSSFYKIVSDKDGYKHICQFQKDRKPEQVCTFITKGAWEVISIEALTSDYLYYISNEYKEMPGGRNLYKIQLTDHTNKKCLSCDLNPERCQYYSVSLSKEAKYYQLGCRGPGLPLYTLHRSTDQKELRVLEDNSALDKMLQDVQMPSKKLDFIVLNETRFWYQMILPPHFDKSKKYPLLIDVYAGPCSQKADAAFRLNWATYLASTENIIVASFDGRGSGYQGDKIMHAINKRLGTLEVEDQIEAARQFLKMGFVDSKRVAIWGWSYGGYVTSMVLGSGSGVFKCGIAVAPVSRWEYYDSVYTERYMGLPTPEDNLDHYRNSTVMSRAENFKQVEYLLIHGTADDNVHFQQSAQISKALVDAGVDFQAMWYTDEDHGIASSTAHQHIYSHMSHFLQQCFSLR
Series [8] is described as follows: AUClast in BALB/c mouse at 0.5 mg/kg, sc measured up to 48 hrs by LC-MS/MS analysis. The series is classed as ADME, organism-based. The conditions noted are these: in vivo.
Series [9] can be described thus: AUClast in Sprague-Dawley rat at 1 mg/kg, iv measured up to 48 hrs by LC-MS/MS analysis. The class given is ADME, organism-based. The settings on record: in vivo.
Series [10] in a line: AUClast in BALB/c mouse at 0.5 mg/kg, iv measured up to 48 hrs by LC-MS/MS analysis. The class given is ADME, organism-based. The settings on record: in vivo.
Series [11] in a line: Half life in Sprague-Dawley rat at 1 mg/kg, sc measured up to 48 hrs by LC-MS/MS analysis. The conditions noted are these: in vivo. The series is classed as ADME, organism-based.
Series [12] in a line: Clearance in Sprague-Dawley rat at 1 mg/kg, iv measured up to 48 hrs by LC-MS/MS analysis. The series is classed as ADME, organism-based. The conditions noted are these: in vivo.
Series [13] deals with T2, Glucagon-like peptide 1 receptor (Homo sapiens, UniProt P43220). Nature of the series: Agonist activity at GLP-1R (unknown origin) expressed in HEK293 cells co-expressing CRE-Luc assessed as increase in intracellular cAMP accumulation in presence of 10% FBS by luciferase based assay. The series is classed as functional, cell-based. The settings on record: read-out: EC50. On the technique in general: cAMP levels reflect the balance of adenylyl cyclase and phosphodiesterase activity.
T2 sequence (P43220 whole entry): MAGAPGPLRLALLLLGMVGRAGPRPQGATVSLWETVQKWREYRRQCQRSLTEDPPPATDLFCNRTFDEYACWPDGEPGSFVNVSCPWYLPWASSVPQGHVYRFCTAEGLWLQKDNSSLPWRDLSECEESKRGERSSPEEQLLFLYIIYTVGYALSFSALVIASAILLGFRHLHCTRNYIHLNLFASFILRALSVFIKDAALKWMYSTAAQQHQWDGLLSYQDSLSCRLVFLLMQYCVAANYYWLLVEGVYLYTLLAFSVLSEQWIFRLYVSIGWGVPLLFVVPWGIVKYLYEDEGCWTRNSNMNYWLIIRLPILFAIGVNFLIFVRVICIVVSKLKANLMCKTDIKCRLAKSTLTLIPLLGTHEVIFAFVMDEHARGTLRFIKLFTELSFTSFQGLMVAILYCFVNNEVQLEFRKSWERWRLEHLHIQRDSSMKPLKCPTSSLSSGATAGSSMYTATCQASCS

Series [14] is described as follows: Stability in Sprague-Dawley rat plasma assessed as compound remaining measured after 96 hrs by RP-HPLC analysis. The class given is ADME, cell-free. The conditions noted are these: read-out: Stability.
The nature of series [15]: Selectivity ratio of EC50 for agonist activity at GLP-1R (unknown origin) expressed in HEK293 cells co-expressing CRE-Luc assessed as increase in intracellular cAMP accumulation in presence of 2% HSA to EC50 for agonist activity at GLP-1R (unknown origin) expressed in HEK293 cells co-expressing CRE-Luc assessed as increase in intracellular cAMP accumulation. The class given is cell-based.

Another series deals with Albumin (Homo sapiens, UniProt P02768). Briefly: Binding affinity to human serum albumin immobilized on AR2G biosensor assessed as dissociation constant incubated for 3 mins by BLI assay. The series is classed as ADME.
Chain of Albumin (P02768 whole entry): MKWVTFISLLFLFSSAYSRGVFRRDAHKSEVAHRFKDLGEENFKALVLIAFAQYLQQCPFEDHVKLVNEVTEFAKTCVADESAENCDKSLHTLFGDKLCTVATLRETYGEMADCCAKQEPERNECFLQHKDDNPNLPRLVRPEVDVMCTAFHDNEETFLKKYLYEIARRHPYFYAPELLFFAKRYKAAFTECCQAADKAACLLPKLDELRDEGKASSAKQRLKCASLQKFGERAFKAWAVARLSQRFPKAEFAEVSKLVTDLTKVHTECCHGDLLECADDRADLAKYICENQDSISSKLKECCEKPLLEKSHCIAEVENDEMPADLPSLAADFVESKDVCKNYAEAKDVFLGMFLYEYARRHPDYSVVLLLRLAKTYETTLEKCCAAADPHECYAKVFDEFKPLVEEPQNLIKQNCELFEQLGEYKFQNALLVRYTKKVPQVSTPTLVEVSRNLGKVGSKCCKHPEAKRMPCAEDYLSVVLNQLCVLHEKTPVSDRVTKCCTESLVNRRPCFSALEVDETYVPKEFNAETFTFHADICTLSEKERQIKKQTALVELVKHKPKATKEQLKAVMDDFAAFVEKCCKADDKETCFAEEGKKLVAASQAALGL
The nature of series [16]: MRT in BALB/c mouse at 0.5 mg/kg, sc measured up to 48 hrs by LC-MS/MS analysis. The class given is ADME, organism-based. The conditions noted are these: in vivo.
Series [17] has as its system Mus musculus. Nature of the series: Anti-hyperglycemic activity in type-2 diabetes db/db mouse assessed as regulation of blood glucose level administered subcutaneously measured up to 96 hrs. The series is classed as functional, organism-based. The conditions noted are these: dose 3-600 nmol/kg, route sc.
For series [18], the target named is T2, Glucagon-like peptide 1 receptor. Nature of the series: Agonist activity at GLP-1R (unknown origin) expressed in HEK293 cells co-expressing CRE-Luc assessed as increase in intracellular cAMP accumulation in presence of 2% HSA by luciferase based assay. The conditions noted are these: read-out: EC50. The class given is functional, cell-based.
Series [19] concerns Mus musculus. Briefly: Anti-hyperglycemic activity in type-2 diabetes db/db mouse assessed as blood glucose level at 3 to 600 nmol/kg, sc measured up to 48 hrs. The class given is functional. The settings on record: dose 3-600 nmol/kg.
The nature of series [20]: Clearance in BALB/c mouse at 0.5 mg/kg, iv measured up to 48 hrs by LC-MS/MS analysis. The class given is ADME, organism-based. The conditions noted are these: in vivo.
Series [21] can be described thus: Half life in BALB/c mouse at 0.5 mg/kg, sc measured up to 48 hrs by LC-MS/MS analysis. The series is classed as ADME, organism-based. The conditions noted are these: in vivo.
Series [22] in a line: Tmax in BALB/c mouse at 0.5 mg/kg, sc measured up to 48 hrs by LC-MS/MS analysis. The class given is ADME, organism-based. The settings on record: in vivo.
The subject of series [23] is Mus musculus. Nature of the series: Anti-hyperglycemic activity in type-2 diabetes db/db mouse assessed as reduction in food intake at 100 nmol/kg, sc measured for 48 hrs. The series is classed as functional, organism-based.
For series [24], the target named is T2, Glucagon-like peptide 1 receptor. Briefly: Agonist activity at GLP-1R (unknown origin) expressed in HEK293 cells co-expressing CRE-Luc assessed as increase in intracellular cAMP accumulation by luciferase based assay. The class given is functional, cell-based. The settings on record: read-out: EC50.
Series [25] concerns the target T1, Dipeptidyl peptidase 4. Nature of the series: Stability in Sprague-Dawley rat plasma assessed as DPP4-mediated drug degradation by measuring Lys(CBB) metabolite formation measured after 96 hrs by mass spectrometry. The class given is ADME, cell-free.
Series [26] in a line: MRT in Sprague-Dawley rat at 1 mg/kg, sc measured up to 48 hrs by LC-MS/MS analysis. The series is classed as ADME, organism-based. The settings on record: in vivo.
Series [27] is described as follows: AUClast in Sprague-Dawley rat at 1 mg/kg, sc measured up to 48 hrs by LC-MS/MS analysis. The class given is ADME, organism-based. The settings on record: in vivo.
Series [28] in a line: Tmax in Sprague-Dawley rat at 1 mg/kg, sc measured up to 48 hrs by LC-MS/MS analysis. The series is classed as ADME, organism-based. The settings on record: in vivo.
A short description of series [29]: Stability in Sprague-Dawley rat plasma assessed as drug degradation by measuring half life measured after 96 hrs by RP-HPLC analysis. The class given is ADME, cell-free.
Series [30] in a line: Binding affinity to collagen type I (unknown origin) immobilized on AR2G biosensor assessed as dissociation constant incubated for 3 mins by BLI assay. Further details: species or system Homo sapiens.

SMILES strings stand for the structures. Calls of active or inactive are those of the source. The rule behind the calls is not given here.

Consider `CC[C@H](C)[C@H](NC(=O)[C@H](Cc1ccccc1)NC(=O)[C@H](CCC(=O)O)NC(=O)[C@H](CCCCNC(=O)COCCOCCNC(=O)COCCOCCNC(=O)CC[C@H](NC(=O)CCCCCCCCCCCCCCCCC(=O)O)C(=O)O)NC(=O)[C@H](C)NC(=O)[C@H](C)NC(=O)[C@H](CCC(N)=O)NC(=O)CNC(=O)[C@H](CCC(=O)O)NC(=O)[C@H](CC(C)C)NC(=O)[C@H](Cc1ccc(O)cc1)NC(=O)[C@H](CO)NC(=O)[C@H](CO)NC(=O)[C@@H](NC(=O)[C@H](CC(=O)O)NC(=O)[C@H](CO)NC(=O)[C@@H](NC(=O)[C@H](Cc1ccccc1)NC(=O)[C@@H](NC(=O)CNC(=O)[C@H](CCC(=O)O)NC(=O)C(C)(C)NC(=O)[C@@H](N)Cc1cnc[nH]1)[C@@H](C)O)[C@@H](C)O)C(C)C)C(=O)N[C@@H](C)C(=O)N[C@@H](Cc1c[nH]c2ccccc12)C(=O)N[C@@H](CC(C)C)C(=O)N[C@H](C(=O)N[C@@H](CCCNC(=N)N)C(=O)NCC(=O)N[C@@H](CCCNC(=N)N)C(=O)NCC(=O)O)C(C)C`, for which the Vd in [1] was determined as 0.163 L/kg; in series [6], 0.083 L/kg. Besides, the Activity with Mus musculus [2] was below 10 mM. In addition, the EC50 with Mus musculus [3] worked out at 2 nmol/kg. Moreover, the outcome in the series with Mus musculus [4] and in the series with Mus musculus [5] was Active.
The term half-life denotes the time in which the quantity being followed falls by half. One may read the clearance as the volume of plasma or blood freed of the substance per unit of time. As a reminder, the Kd is the equilibrium constant for the complex coming apart. As a reminder, the MRT is the average time that molecules of a dose stay in the body. Broadly, the Tmax is the time from dosing to the highest level. Regarding `CCOc1ccc(Nc2ccc(/C(=C3C=C/C(=[N+](\CC)Cc4cccc(S(=O)(=O)[O-])c4)C=C\3C)c3ccc(N(CC)Cc4cccc(S(=O)(=O)NCCCCCC(=O)NCCOCCOCCOCCOCCOCCOCCOCCOCCC(=O)NCCCC[C@H](NC(=O)[C@@H](NC(=O)[C@H](CC(C)C)NC(=O)[C@H](Cc5c[nH]c6ccccc56)NC(=O)[C@H](C)NC(=O)[C@@H](NC(=O)[C@H](Cc5ccccc5)NC(=O)[C@H](CCC(=O)O)NC(=O)[C@H](CCCNC(=N)N)NC(=O)[C@H](C)NC(=O)[C@H](C)NC(=O)[C@H](CCC(N)=O)NC(=O)CNC(=O)[C@H](CCC(=O)O)NC(=O)[C@H](CC(C)C)NC(=O)[C@H](Cc5ccc(O)cc5)NC(=O)[C@H](CO)NC(=O)[C@H](CO)NC(=O)[C@@H](NC(=O)[C@H](CC(=O)O)NC(=O)[C@H](CO)NC(=O)[C@@H](NC(=O)[C@H](Cc5ccccc5)NC(=O)[C@@H](NC(=O)CNC(=O)[C@H](CCC(=O)O)NC(=O)CNC(=O)[C@@H](N)Cc5c[nH]cn5)[C@@H](C)O)[C@@H](C)O)C(C)C)[C@@H](C)CC)C(C)C)C(=O)NCC(=O)N[C@@H](CCCNC(=N)N)C(N)=O)c4)cc3C)cc2)cc1`, the Drug metabolism result on Dipeptidyl peptidase 4 [7] and at Dipeptidyl peptidase 4 [25] was “metabolite_detected” each time. Further, the AUC in [8] is 123.884 h/µg/mL; in series [9], 67.28 h/µg/mL; in series [10], 111.886 h/µg/mL; in series [27], 28.81 h/µg/mL. The Vd in [1] was determined as 0.15 L/kg; in series [6], 0.056 L/kg. Moreover, the Activity with Mus musculus [2] was below 10 mM; in the series with Mus musculus [17] it was “Dose-dependent-effect”; in the series with Mus musculus [19], below 10 mM. In addition, the half-life is 32 h in series [11], 32 h in series [21] and 24 h in series [29]. Also, the clearance is 0.25 mL/min/kg in series [12] and 0.0667 mL/min/kg in series [20]. Further, the EC50 in series [13] stood at 0.21 pM; in the series with Mus musculus [3] it was 30 nmol/kg; in series [18], 1.99 pM; in series [24], 0.37 pM. The remaining at 96 h in series [14] turned out to be 40%. The Ratio EC50 in series [15] came out at 5.38. Moreover, the Kd at Albumin was found to be 520000 pM; in [30] it was 390000 pM. For the same molecule, the mean residence time MRT came out at 18.1 h in [16] and 18 h in series [26]. Besides, the outcome in the series with Mus musculus [4], with Mus musculus [5] and with Mus musculus [23] was Active. For the same molecule, the time of peak concentration (Tmax) in series [22] and in series [28] was 12 h in each case.
